Assay results as given in PubChem BioAssay (NCI).
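Where inhibition never reached the appropriate level, the endpoint shown equals the highest concentration tested. Otherwise, values were interpolated linearly from a five-concentration, 48-hour dose response in 96-well plates. Definition used: TGI = concentration required for complete inhibition of growth.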

Columns and labels:
Assay in all cases: growth of human tumour cells (NCI), 48 h
786-0 renal = test system: 786-0 renal
ACHN renal = test system: ACHN renal
BT-549 breast = test system: BT-549 breast
CAKI-1 renal = test system: CAKI-1 renal
CCRF-CEM leukemia = test system: CCRF-CEM leukemia
COLO 205 colon = test system: COLO 205 colon
DU-145 prostate = test system: DU-145 prostate
EKVX NSCLC = test system: EKVX NSCLC
HCC-2998 colon = test system: HCC-2998 colon
HCT-116 colon = test system: HCT-116 colon
HCT-15 colon = test system: HCT-15 colon
HOP-62 NSCLC = test system: HOP-62 NSCLC
HOP-92 NSCLC = test system: HOP-92 NSCLC
HT29 colon = test system: HT29 colon
IGROV1 ovarian = test system: IGROV1 ovarian
K-562 leukemia = test system: K-562 leukemia
KM12 colon = test system: KM12 colon
LOX IMVI melanoma = test system: LOX IMVI melanoma
M14 melanoma = test system: M14 melanoma
MALME-3M melanoma = test system: MALME-3M melanoma
MCF7 breast = test system: MCF7 breast
MDA-MB-231 breast = test system: MDA-MB-231 breast
MDA-MB-435 = test system: MDA-MB-435
MDA-N = test system: MDA-N
MOLT-4 leukemia = test system: MOLT-4 leukemia
NCI-H226 lung = test system: NCI-H226 lung
NCI-H23 lung = test system: NCI-H23 lung
NCI-H460 lung = test system: NCI-H460 lung
NCI-H522 lung = test system: NCI-H522 lung
NCI/ADR-RES ovarian = test system: NCI/ADR-RES ovarian
OVCAR-3 ovarian = test system: OVCAR-3 ovarian
OVCAR-4 ovarian = test system: OVCAR-4 ovarian
OVCAR-5 ovarian = test system: OVCAR-5 ovarian
OVCAR-8 ovarian = test system: OVCAR-8 ovarian
PC-3 prostate = test system: PC-3 prostate
RPMI-8226 leukemia = test system: RPMI-8226 leukemia
RXF 393 renal = test system: RXF 393 renal
SF-268 CNS = test system: SF-268 CNS
SF-295 CNS = test system: SF-295 CNS
SF-539 CNS = test system: SF-539 CNS
SK-MEL-2 melanoma = test system: SK-MEL-2 melanoma
SK-MEL-28 melanoma = test system: SK-MEL-28 melanoma
SK-MEL-5 melanoma = test system: SK-MEL-5 melanoma
SN12C renal = test system: SN12C renal
SNB-19 CNS = test system: SNB-19 CNS
SNB-75 CNS = test system: SNB-75 CNS
SR leukemia = test system: SR leukemia
SW-620 colon = test system: SW-620 colon
T-47D breast = test system: T-47D breast
TK-10 renal = test system: TK-10 renal
U251 CNS = test system: U251 CNS
UACC-257 melanoma = test system: UACC-257 melanoma
UACC-62 melanoma = test system: UACC-62 melanoma
UO-31 renal = test system: UO-31 renal
A498 renal = test system: A498 renal
A549 NSCLC = test system: A549 NSCLC
HL-60(TB) leukemia = test system: HL-60(TB) leukemia
HS 578T breast = test system: HS 578T breast
SK-OV-3 ovarian = test system: SK-OV-3 ovarian

For `Cc1ccc(C2CC(=O)CC(c3ccc(C)cc3)C23C(=O)NC(=O)NC3=O)cc1` (centres undefined), the TGI (786-0 renal) was greater than 100 µM, the TGI (ACHN renal) was greater than 100 µM and the TGI (BT-549 breast) was greater than 100 µM. It also gave a TGI (CAKI-1 renal) greater than 100 µM, a TGI (CCRF-CEM leukemia) greater than 100 µM and a TGI (COLO 205 colon) greater than 100 µM. It also gave a TGI (DU-145 prostate) greater than 100 µM, a TGI (EKVX NSCLC) greater than 100 µM and a TGI (HCC-2998 colon) greater than 100 µM. It also gave a TGI (HCT-116 colon) greater than 100 µM, a TGI (HCT-15 colon) greater than 100 µM and a TGI (HOP-62 NSCLC) greater than 100 µM. It also gave a TGI (HOP-92 NSCLC) greater than 100 µM, a TGI (HT29 colon) greater than 100 µM and a TGI (IGROV1 ovarian) greater than 100 µM. The TGI (K-562 leukemia) was greater than 100 µM, the TGI (KM12 colon) was greater than 100 µM and the TGI (LOX IMVI melanoma) was greater than 100 µM. The TGI (M14 melanoma) was greater than 100 µM, the TGI (MALME-3M melanoma) was greater than 100 µM and the TGI (MCF7 breast) was greater than 100 µM. For the same compound, the TGI (MDA-MB-231 breast) was greater than 100 µM, the TGI (MDA-MB-435) was greater than 100 µM and the TGI (MDA-N) was greater than 100 µM. It also gave a TGI (MOLT-4 leukemia) greater than 100 µM, a TGI (NCI-H226 lung) greater than 100 µM and a TGI (NCI-H23 lung) greater than 100 µM. It also gave a TGI (NCI-H460 lung) greater than 100 µM, a TGI (NCI-H522 lung) greater than 100 µM and a TGI (NCI/ADR-RES ovarian) greater than 100 µM. For the same compound, the TGI (OVCAR-3 ovarian) was greater than 100 µM, the TGI (OVCAR-4 ovarian) was greater than 100 µM and the TGI (OVCAR-5 ovarian) was greater than 100 µM. It also gave a TGI (OVCAR-8 ovarian) greater than 100 µM, a TGI (PC-3 prostate) greater than 100 µM and a TGI (RPMI-8226 leukemia) greater than 100 µM. It also gave a TGI (RXF 393 renal) greater than 100 µM, a TGI (SF-268 CNS) greater than 100 µM and a TGI (SF-295 CNS) greater than 100 µM. The TGI (SF-539 CNS) was greater than 100 µM, the TGI (SK-MEL-2 melanoma) was greater than 100 µM and the TGI (SK-MEL-28 melanoma) was greater than 100 µM. The TGI (SK-MEL-5 melanoma) was greater than 100 µM, the TGI (SN12C renal) was greater than 100 µM and the TGI (SNB-19 CNS) was greater than 100 µM. It also gave a TGI (SNB-75 CNS) greater than 100 µM, a TGI (SR leukemia) greater than 100 µM and a TGI (SW-620 colon) greater than 100 µM. The TGI (T-47D breast) was greater than 100 µM, the TGI (TK-10 renal) was greater than 100 µM and the TGI (U251 CNS) was greater than 100 µM. For the same compound, the TGI (UACC-257 melanoma) was greater than 100 µM, the TGI (UACC-62 melanoma) was greater than 100 µM and the TGI (UO-31 renal) was greater than 100 µM.
`O=C1C=CC2CCC1C2` (centres undefined) was tested, and the TGI (786-0 renal) was greater than 100 µM, the TGI (A498 renal) was greater than 100 µM and the TGI (A549 NSCLC) was greater than 100 µM. The TGI (ACHN renal) was greater than 100 µM, the TGI (BT-549 breast) was 73.3 µM and the TGI (CAKI-1 renal) was greater than 100 µM. The TGI (CCRF-CEM leukemia) was greater than 100 µM, the TGI (COLO 205 colon) was greater than 100 µM and the TGI (DU-145 prostate) was greater than 100 µM. The TGI (EKVX NSCLC) was greater than 100 µM, the TGI (HCC-2998 colon) was 89.9 µM and the TGI (HCT-116 colon) was greater than 100 µM. For the same compound, the TGI (HCT-15 colon) was greater than 100 µM, the TGI (HL-60(TB) leukemia) was greater than 100 µM and the TGI (HOP-62 NSCLC) was greater than 100 µM. The TGI (HS 578T breast) was 80.4 µM, the TGI (HT29 colon) was greater than 100 µM and the TGI (IGROV1 ovarian) was greater than 100 µM. The TGI (K-562 leukemia) was greater than 100 µM, the TGI (KM12 colon) was greater than 100 µM and the TGI (LOX IMVI melanoma) was greater than 100 µM. For the same compound, the TGI (M14 melanoma) was greater than 100 µM, the TGI (MALME-3M melanoma) was greater than 100 µM and the TGI (MCF7 breast) was greater than 100 µM. For the same compound, the TGI (MDA-MB-231 breast) was greater than 100 µM, the TGI (MDA-MB-435) was 61.5 µM and the TGI (MDA-N) was greater than 100 µM. The TGI (MOLT-4 leukemia) was greater than 100 µM, the TGI (NCI-H226 lung) was 98.5 µM and the TGI (NCI-H23 lung) was greater than 100 µM. It also gave a TGI (NCI-H460 lung) greater than 100 µM, a TGI (NCI-H522 lung) of 65.9 µM and a TGI (NCI/ADR-RES ovarian) greater than 100 µM. For the same compound, the TGI (OVCAR-3 ovarian) was greater than 100 µM, the TGI (OVCAR-5 ovarian) was 61.6 µM and the TGI (OVCAR-8 ovarian) was greater than 100 µM. The TGI (PC-3 prostate) was greater than 100 µM, the TGI (RPMI-8226 leukemia) was greater than 100 µM and the TGI (SF-268 CNS) was 58.6 µM. It also gave a TGI (SF-295 CNS) greater than 100 µM, a TGI (SF-539 CNS) of 90.2 µM and a TGI (SK-MEL-2 melanoma) greater than 100 µM. For the same compound, the TGI (SK-MEL-28 melanoma) was 89.9 µM, the TGI (SK-MEL-5 melanoma) was greater than 100 µM and the TGI (SK-OV-3 ovarian) was 72.4 µM. It also gave a TGI (SN12C renal) greater than 100 µM, a TGI (SNB-19 CNS) of 96.3 µM and a TGI (SNB-75 CNS) greater than 100 µM. It also gave a TGI (SW-620 colon) greater than 100 µM, a TGI (T-47D breast) greater than 100 µM and a TGI (TK-10 renal) greater than 100 µM. For the same compound, the TGI (U251 CNS) was greater than 100 µM, the TGI (UACC-257 melanoma) was greater than 100 µM and the TGI (UACC-62 melanoma) was greater than 100 µM. It also gave a TGI (UO-31 renal) greater than 100 µM.
